Read-outs that look alike come from different tables or passages of the source.
Experiments:
Type in all cases: in vivo
[1] = tested on: cucumber gray mold fungus (Botrytis cinerea); test: Preventive test against gray mold on cucumber cotyledon leaves, spray treatment, preventive value and Colby expected value (Test Examples 1-4); conditions: single compound; for pest or weed control at 10 ppm / pest or weed control at 50 ppm / pest or weed control at 20 ppm: Botrytis cinerea, 72 h; for pest or weed control at 10 ppm: 10 ppm spray; for pest or weed control at 50 ppm: 50 ppm spray; for pest or weed control at 20 ppm: 20 ppm spray
Protocol: Using the following compound listed in Table 2 (the active ingredient A) and the compound listed in Table 5 through Table 15 (active ingredient B), an agent was prepared in accordance with the above Formulation Example. This agent was diluted with water to a predetermined concentration to obtain a test solution. Then, cucumber (variety: Sagami-hanjiro) was planted in a plastic pot of 90 cm^3, and in the cotyledon stage, 5 ml of the obtained test solution, was sprayed by a spray gun and air-dried. Thereafter, the treated leaf was cut off and placed in a plastic container which filled approximately 0.5 cm in depth water. A suspension of conidia of cucumber gray mold fungus (Botrytis cinerea) and a dissolved PDA culture medium were mixed at a ratio of 1:1 (mass ratio), and the mixture was dropped to inoculate the treated leaf with 30 μl. After the inoculation, the plastic container was sealed and left at 20° C. for 3 days, the ratio of the formed lesion occupying the inoculated leaf was measured, and the preventive value was calculated in accordance with the following calculation formula. Preventive value=[1−(treated plot lesion area ratio/untreated plot lesion area ratio)]×100
Further, from the preventive value at each agent concentration, synergy was calculated by using the Colby method (Colby S. R. 1976, Weeds 15, 20-22). The calculation method is as follows. E=X+Y−XY/100
X: preventive value of A agent at x concentration
Y: preventive value of B agent at y concentration
E: theoretical value expected by treatment of the mixture of A agent and B agent.
The obtained result is analyzed to be synergy if the observed value is larger than the expected value, to be antagonism if the expected value is larger than the observed value, and to be an additive effect if the observed value and the expected value are the same.
Using the following compound listed in Table 2 (active ingredient A) and the following compound listed in Table 5 through Table 15 (active ingredient B) as active ingredients, a preventive test against gray mold was conducted in accordance with the method described in Test Example 1.
Using the following compound listed in Table 2 (active ingredient A) and the following compound listed in Table 5 or Table 6 (active ingredient B) as active ingredients, a preventive test against gray mold was conducted in accordance with the method described in Test Example 1.
Using the following compound listed in Table 2 (active ingredient A) and the following compound listed in Table 6 through Table 16 (active ingredient B) as active ingredients, a preventive test against gray mold was conducted in accordance with the method described in Test Example 1.

[2] = tested on: wheat glume blotch (Leptosphaeria nodorum); test: Efficacy test on wheat glume blotch, spray treatment and prevention test (Test Example 8); conditions: for pest or weed control at 5 ppm: single compound 5 ppm
Protocol: An agent comprising the following compound listed in Table 2 (active ingredient A) and the following compound listed in Table 6, Table 11 or Table 15 (active ingredient B) as active ingredients, was prepared in accordance with the above Formulation Example. This agent was diluted with water to a predetermined concentration to obtain a test solution. Then, to seedlings of wheat (variety: Haruyutaka) at the 1-leaf stage, seeded in a pot with a diameter of 7 cm, with 5 seeds per pot, and grown for 7 days, the test solution was applied by a spray gun in an amount of 5 ml per pot, for treatment. One day after the treatment, a spore suspension (1×100,000 cfu/ml) of wheat glume blotch (Leptosphaeria nodorum) was spray-inoculated, and the pot was placed in a moist chamber set in temperature of 20° C. and humidity more than 95% RH for 48 hours. After placing the pot in a glass greenhouse for 7 days, the ratio of the formed lesion area occupying the inoculated leaves was measured, and the preventive value was calculated in accordance with the following formula. Preventive value=[1−(treated plot lesion area ratio/untreated plot lesion area ratio)]×100
(§1) Further, from the preventive value for each agent concentration, synergy was calculated by using the Colby method (Colby S. R. 1976, Weeds 15, 20-22).

[3] = tested on: cucumber downy mildew (Pseudoperenospora cubensis); test: Efficacy test on cucumber downy mildew, spray treatment and prevention test (Test Example 7); conditions: lesion area ratio
Protocol: An agent comprising the following compound listed in Table 2 (active ingredient A) and the compound listed in Table 6 (C40: active ingredient B) as active ingredients, was prepared in accordance with the above Formulation Example. This agent was diluted with water to a predetermined concentration to obtain a test solution. Then, to seedlings of cucumber (variety: Sagami-hanjiro) at 1.5-leaf stage grown in a pot with a diameter of 7 cm, the test solution was applied by a spray gun in an amount of 10 ml per pot, for treatment. One day after the treatment, a spore suspension (2×100,000 cfu/ml) of cucumber downy mildew (Pseudoperenospora cubensis), was spray-inoculated, and the pot was placed in a moist chamber set in temperature of 20° C. and humidity more than 95% RH for 24 hours. After placing the pot in a glass greenhouse for 6 days, the ratio of the formed lesion area occupying the inoculated leaves was measured, and the preventive value was calculated in accordance with the following formula. Preventive value=[1−(treated plot lesion area ratio/untreated plot lesion area ratio)]×100
as §1

[4] = tested on: rice sheath blight fungus (Rhizoctonia solani); test: Efficacy test on rice sheath blight, spray treatment and prevention test (Test Examples 5-6); conditions: lesion height
Protocol: An agent comprising the following compound listed in Table 2 (active ingredient A) and the compound listed in Table 6 (C17: active ingredient B) as active ingredients, was prepared in accordance with the above Formulation Example. The agent was diluted with water to a predetermined concentration to obtain a test solution. Then, in a plastic pot of 90 cm^3, rice (Nipponbare) was seeded by 5 grains in one place, and to the grown seedlings in 4 seedling phase, the test solution was applied by a spray gun in an amount of 5 ml per pot, for treatment.
One day after the treatment, 1 g of mycelium flora of rice sheath blight fungus (Rhizoctonia solani) cultured in bran medium, was put by […] to a close-to-ground part of seedlings, and the pot was placed in a moist chamber set in temperature of 25° C. and humidity more than 95% RH for eight days. The height of the lesions which appeared in the highest position from the close-to-ground part (lesion height) was investigated, and the preventive value was calculated in accordance with the following formula. Preventive value=[1−(treated plot lesion height/untreated plot lesion height)]×100
as §1
Using the following compound listed in Table 2 (active ingredient A) and the compound listed in Table 6 (C17: active ingredient B) as active ingredients, a preventive test on rice sheath blight was conducted in accordance with the above Test Example 5.

[5] = tested on: cucumber powdery mildew (Sphaerotheca cucurbitae); test: Efficacy test on cucumber powdery mildew, irrigation treatment (Test Example 11); conditions: cucumber (Sagami-hanjiro)
Protocol: An agent comprising the following compound listed in Table 2 (active ingredient A) and the compound listed in Table 6 (C18: active ingredient B), was prepared in accordance with the above Formulation Example. This agent was diluted with water to a predetermined concentration to obtain a test solution. 5 ml of the test solution was irrigated by a pipette to the close-to-ground part of cucumber seedlings at the 1 leaf stage (variety: Sagami-hanjiro), grown in a styrol cup with a diameter of 10 cm, and next day, the seedlings were transplanted to the to 4 cun pots. Then, after cultivation for 7 days in a glass greenhouse, to the first true leaf of the cucumber, a spore suspension (100,000 cfu/ml) of cucumber powdery mildew (Sphaerotheca cucurbitae) was inoculated by spraying. After 10 days in a glass greenhouse, the ratio of the formed lesion area occupying the inoculated leaves was measured, and the preventive value was calculated in accordance with the following formula. Preventive value=[1−(treated plot lesion area ratio/untreated plot lesion area ratio)]×100
(§2) Further, from the preventive value at each agent concentration, synergy was calculated by using the Colby method (Colby S. R. 1976, Weeds 15, 20-22).

[6] = tested on: wheat powdery mildew (Blumeria graminis); test: Efficacy test on wheat powdery mildew, seed treatment (Test Example 10); conditions: wheat (Norin 61)
Protocol: An agent comprising the following compound listed in Table 2 (active ingredient A) and the compound listed in Table 11 (H35: active ingredient B) as active ingredients, was prepared in accordance with the above Formulation Example. This agent was diluted with water to a predetermined concentration to obtain a test solution. A predetermined amount of test solution was put in a glass bottle of 5 ml, and 0.5 g (approximately 15 grains) of wheat seeds (variety: Norin 61) were added, stirred and air-dried. In each pot with a diameter of 7 cm and having soil put therein, 3 grains were seeded and grown for 14 days. To the wheat seedlings grown to the 1-leaf stage, a spore suspension (100,000 cfu/ml) of wheat powdery mildew (Blumeria graminis) was spray-inoculated. After placing the pot in a glass greenhouse for 10 days, the ratio of the formed lesion area occupying the inoculated leaves was measured, and the preventive value was calculated in accordance with the following formula. Preventive value=[1−(treated plot lesion area ratio/untreated plot lesion area ratio)]×100
as §2

[7] = tested on: wheat glume blotch (Leptosphaeria nodorum); test: Efficacy test on wheat glume blotch, seed treatment (Test Example 9); conditions: single compound
Protocol: An agent comprising the following compound listed in Table 2 (active ingredient A) and the compound listed in Table 11 (H35: active ingredient B) as active ingredients, was prepared in accordance with the above Formulation Example. This agent was diluted with water to a predetermined concentration to obtain a test solution. A predetermined amount of the test solution was put in a glass bottle of 5 ml, and 0.5 g (approximately 15 grains) of wheat seeds (variety: Haruyutaka) were added, stirred and air-dried. In each pot with a diameter of 7 cm having soil put therein, 3 grains were seeded and grown for 14 days. To seedlings of the wheat (variety: Haruyutaka) grown to a 1-leaf stage, a spore suspension (100,000 cfu/ml) of wheat glume blotch (Leptosphaeria nodorum) was spray-inoculated, and the pot was placed in a moist chamber set in temperature of 20° C. and humidity more than 95% RH for 48 hours. After placing the pot for 7 days in a glass greenhouse, the ratio of the formed lesion area occupying the inoculated leaves was measured, and the preventive value was calculated in accordance with the following formula. Preventive value=[1−(treated plot lesion area ratio/untreated plot lesion area ratio)]×100
as §2

[8] = Test Example 4, read-out: Preventive value
[9] = Parastagonospora nodorum, single compound 50 ppm, spray, lesion area ratio, read-out: Preventive value
[10] = Test Example 1, read-out: Preventive value
[11] = Test Example 2, read-out: Preventive value
[12] = Parastagonospora nodorum, spray, lesion area ratio, read-out: Preventive value

`CON=C(C(=O)OC)c1ccccc1CON=C(C)c1cccc(C(F)(F)F)c1` [C39, trifloxystrobin, reference compound] was tested, and the pest or weed control at 10 ppm [1, 8] was 40% and the pest or weed control at 50 ppm [2, 9] was 70%.
`Cc1c(Br)c2ccc(F)cc2n1S(=O)(=O)c1ncn(S(=O)(=O)N(C)C)n1` [C40, amisulbrom] showed a Preventive value ([3]; single compound 0.5 ppm) of 75, a Preventive value ([1]; Test Example 1, 100 ppm spray) of 0 and a Preventive value ([1]; Test Example 2, 100 ppm spray) of 0.
`Cc1nc(C(F)(F)F)c(C(=O)Nc2c(Br)cc(OC(F)(F)F)cc2Br)s1` [Compound No. C17, thifluzamide, reference compound] gave a pest or weed control at 50 ppm [1, 10] of 20%, a pest or weed control at 50 ppm [1, 11] of 25% and a Preventive value ([4]; Test Example 5, single compound 5 ppm) of 69. For the same molecule, the Preventive value ([4]; Test Example 6, single compound 5 ppm) was 75.
Molecule `CO/C=C(/C(=O)OC)c1ccccc1Oc1cc(Oc2ccccc2C#N)ncn1` [Compound No. C18, azoxystrobin, reference compound] has a Preventive value ([1]; Test Example 1, 3 ppm spray) of 30, a Preventive value ([1]; Test Example 2, 3 ppm spray) of 28 and a Preventive value ([5]; concentration 6.3 ppm) of 50. For the same molecule, the Preventive value ([2]; single compound 1 ppm, spray, lesion area ratio) was 65.
With `OC(Cc1ccccc1Cl)(Cn1nc[nH]c1=S)C1(Cl)CC1` (stereo not drawn) [Compound No. H31, prothioconazole, reference compound] the pest or weed control at 10 ppm [1, 8] was 50% and the pest or weed control at 50 ppm [2, 9] was 30%.
`CC(C)(C)C(O)(CCc1ccc(Cl)cc1)Cn1cncn1` (stereo not drawn) [Compound No. H35, tebuconazole, reference compound] was tested, and the pest or weed control at 20 ppm ([1]; Test Example 1) was 45%, the pest or weed control at 20 ppm ([1]; Test Example 2) was 50% and the Preventive value ([6]; processing amount 0.025 mg/1 g seed) was 80. For the same molecule, the Preventive value ([6]; processing amount 0.1 mg/1 g seed) was 95, the pest or weed control at 5 ppm [2, 12] was 45% and the Preventive value ([7]; processing amount 1 mg/1 g seed) was 60. The Preventive value ([7]; processing amount 5 mg/1 g seed) was 75.
In the case of `N#CC(CCc1ccc(Cl)cc1)(Cn1cncn1)c1ccccc1` (stereo not drawn) [H13, fenbuconazole], the pest or weed control at 50 ppm [1, 10] is reported as 63%, the pest or weed control at 50 ppm [1, 11] is reported as 60% and the pest or weed control at 25 ppm ([2]; Parastagonospora nodorum, single compound 25 ppm, spray, lesion area ratio, read-out: Preventive value) is reported as 50%.
`CC1(C)CCC(Cc2ccc(Cl)cc2)C1(O)Cn1cncn1` (stereo not drawn) [H23, metconazole, reference compound] showed a pest or weed control at 10 ppm [1, 8] of 60% and a pest or weed control at 5 ppm [2, 12] of 45%.
`CCCCC(C#N)(Cn1cncn1)c1ccc(Cl)cc1` (stereo not drawn) [H24, myclobutanil, reference compound] was tested, and the pest or weed control at 10 ppm [1, 8] was 60% and the pest or weed control at 100 ppm ([2]; Parastagonospora nodorum, single compound 100 ppm, spray, lesion area ratio, read-out: Preventive value) was 70%.
Molecule `CCCN(CCOc1c(Cl)cc(Cl)cc1Cl)C(=O)n1ccnc1` [H29, prochloraz, reference compound] has a pest or weed control at 10 ppm ([1]; read-out: Preventive value, Test Example 4) of 50% and a pest or weed control at 50 ppm ([2]; Parastagonospora nodorum, read-out: Preventive value) of 45%.
In the case of `N#Cc1c(Cl)c(Cl)c(Cl)c(C#N)c1Cl` [L25, chlorothalonil], the pest or weed control at 50 ppm [1, 10] is reported as 50%, the pest or weed control at 50 ppm [1, 11] is reported as 55% and the pest or weed control at 50 ppm [2, 9] is reported as 50%.
Work on `CC(C)ON=C(CNC(=O)c1ccccc1C(F)(F)F)c1ncc(Cl)c(S(C)(=O)=O)c1Cl` [compound 32] yielded a Preventive value ([3]; single compound 250 ppm) of 0, a Preventive value ([1]; Test Example 2, 1 ppm spray) of 94 and a Preventive value ([1]; Test Example 3, 1 ppm spray) of 90. It also gave a Preventive value ([1]; Test Example 4, 1 ppm spray) of 80, a Preventive value ([5]; concentration 500 ppm) of 30 and a Preventive value ([2]; single compound 3 ppm, spray, lesion area ratio) of 60. For the same molecule, the Preventive value ([2]; single compound 10 ppm, spray, lesion area ratio) was 85 and the Preventive value ([4]; Test Example 6, single compound 250 ppm) was 6.

Source: US9974305B2, “Fungicidal or bactericidal composition, and method for controlling diseases” (NISSAN CHEMICAL INDUSTRIES, LTD., priority 2014, dated 2018)
